Results taken from patent publication US5593970A, “Heterocyclic anthracycline analogs” (priority 1994, dated 1997).
pIC50: −log10 of the molar value. Counter-ions that a name gives are not always drawn. Like-named read-outs stand apart in the source and are kept apart here.

Tests used:
Assay in all cases: Microculture tetrazolium assay
Type in all cases: cell-based
SKVLB = settings: for VLB/OV3: IC50 ratio SKVLB/SKOV3; for pIC50: SKVLB
SKOV3 = settings: Homo sapiens, SK-OV-3, SKOV3
LOX = test system: LOX
HT29 = settings: Homo sapiens, HT-29, HT29
T47D = settings: Homo sapiens

Compound | pIC50 (SKVLB; read-out: IC50) | pIC50 (SKOV3; read-out: IC50) | pIC50 (LOX; read-out: IC50) | pIC50 (HT29; read-out: IC50) | pIC50 (T47D; read-out: IC50) | VLB/OV3 (SKVLB) | pIC50 (SKOV3) | pIC50 (SKVLB) | pIC50 (LOX) | pIC50 (HT29) | pIC50 (T47D)
C[C@@H]1O[C@@H](O[C@@H]2O[C@@H](C#N)CC3=C2C(=O)c2cc4ccccc4c(O)c2C3=O)C[C@H](NC(=O)C(F)(F)F)[C@@H]1O [BCH-2008, (1'S,1S,3R)-3-(6-hydroxy-1-(2',3',6'-trideoxy-3'-trifluoroacetamido-4'-hydroxy-L-lyxohexopyranose)-5,12-dioxo-3,4,5,12-tetrahydroanthraceno-[2,3-c]pyran-3-yl)nitrile] | 5.66 | 6.48 | 6.81 | 7.20 | 6.41 | 6.57 |  |  |  |  | 
C[C@@H]1O[C@@H](O[C@H]2O[C@H](c3ccccc3)CC3=C2C(=O)c2cc4ccccc4c(O)c2C3=O)C[C@H](N)[C@@H]1O [BCH-2012, (1'S,1R,3S)-3-(6-hydroxy-1-(2',3',6'-trideoxy-3'-amino-4'-hydroxy-L-lyxohexopyranose)-5,12-dioxo-3,4,5,12-tetrahydroanthraceno-[2,3-c]pyran-3-yl)benzene hydrochloride] | 5.39 | 5.69 | 6.13 | 6.25 | 6.02 | 1.96 |  |  |  |  | 
C[C@@H]1O[C@@H](O[C@H]2O[C@H](S(=O)(=O)c3ccccc3)CC3=C2C(=O)c2cc4ccccc4c(O)c2C3=O)C[C@H](NC(=O)C(F)(F)F)[C@@H]1O [BCH-2025] | 5.21 |  | 5.95 | 6.19 | 5.48 | 3.15 | 5.71 |  |  |  | 
CC(=O)C1CC2=C(C(=O)c3cc4ccccc4c(O)c3C2=O)C(OC[C@@H](O)CO)O1 (stereo partly shown) [BCH-2034] |  | 5.53 | 5.84 | 5.69 | 5.10 | 2.54 |  | 5.13 |  |  | 
CC(=O)[C@H]1CC2=C(C(=O)c3cc4ccccc4c(O)c3C2=O)[C@H](O[C@H]2O[C@H](CO)[C@@H](O)[C@H](O)[C@H]2NC(=O)N(CCCl)N=O)O1 [BCH-2039] |  |  |  |  |  | 6.01 | 4.87 | 4.09 | 5.81 | 5.35 | 4.90
CC(C)[C@@H]1Cc2c(O)c3c(c(O)c2[C@@H](O[C@H]2C[C@H](N)[C@H](O)[C@H](C)O2)O1)C(=O)c1ccccc1C3=O [BCH-2050, (1'S,1R,3S)-5,12-Dixydroxy-3-isopropy-1-(2',3',6'-trideoxy-3'-amino 'L-lyxohexopyranose)-1,2,3,4-tetrahydro-(2-oxygen)-naphtacene-6,11-dione-hydrochloride] | 7.17 | 7.15 | 7.42 | 6.52 | 6.39 | 0.95 |  |  |  |  | 
C[C@@H]1O[C@@H](O[C@@H]2O[C@@H](COc3ccccc3)CC3=C2C(=O)c2cc4ccccc4c(O)c2C3=O)C[C@H](NC(=O)C(F)(F)F)[C@@H]1O [BCH-2057, (1'S,1S,3R)-5,12-dioxo-6-hydroxy-3-phenyloxymethyl-1-(2',3',6'-trideoxy-3'-trifluoroacetamido-L-lyxohexopyranose)-3,4,5,12-tetrahydroanthraceno-[2,3-c]pyran] | 5.29 | 5.99 | 5.83 | 5.57 | 6.61 | 5.01 |  |  |  |  | 
CC(=O)[C@@H]1Cc2c(O)c3c(c(O)c2[C@@H](O[C@@H]2O[C@@H](C)[C@@H](O)[C@@H](NC(=O)C(F)(F)F)C2I)O1)C(=O)c1ccccc1C3=O (stereo partly shown) [BCH-2063] | 5.71 | 6.35 | 6.50 | 5.58 | 6.84 | 4.34 |  |  |  |  | 
CC(=O)[C@H]1CC2=C(C(=O)c3cc4ccccc4c(O)c3C2=O)[C@H](O[C@@H]2O[C@@H](C)[C@@H](O)[C@@H](NC(=O)C(F)(F)F)C2I)O1 (stereo partly shown) [BCH-2064] | 5.46 | 5.84 | 4.97 | 6.36 | 6.06 | 2.38 |  |  |  |  | 
CC(=O)[C@@H]1CC2=C(C(=O)c3cc4ccccc4c(O)c3C2=O)[C@@H](O[C@H]2O[C@H](CO)[C@@H](O)[C@H](O)[C@H]2NC(=O)N(CCCl)N=O)O1 [BCH-2073, (1'R, 1R,3S)-3-Aceto-6-hydroxy-1-(2-deoxy-2-chloroethylnitrosoureido-D-glucopyranose)-5,12-dioxo-3,4,5,12-tetrahydro-1H-anthra[2,3-C]pyran] |  |  |  |  |  | 2.67 | 5.29 | 4.86 | 6.09 | 5.18 | 5.21
CCC1COC(OC2CC(N)C(O)C(C)O2)c2c(O)c3c(c(O)c21)C(=O)c1ccccc1C3=O [BCH-2086, (1'S,1R,4R)-5,12-Dihydroxy-4-ethyl-1-(2',3',6'-trideoxy-3'-amino-L-lyxohexopyranose)-1,2,3,4-tetrahydro-(2-oxygen)-naphthacene-6,11-dione-hydrochloride] | 5.77 | 6.07 | 6.44 | 6.19 | 5.85 |  |  |  |  |  | 
CCCCC[C@H]1Cc2c(O)c3c(c(O)c2[C@H](O[C@H]2C[C@H](N)[C@H](O)[C@H](C)O2)O1)C(=O)c1ccccc1C3=O [BCH-2088, (1'S,1S,3S)-5,12-mihydroxy-3-pentyl-1-(2',3',6'-trideoxy-3'-amino-L-lyxohexopyranose)-1,2,3,4-tetrahydro-(2-oxygen)-naphtacene-6,11-dione-hydrochloride] | 5.96 | 6.24 | 6.70 | 7.62 | 6.76 | 1.90 |  |  |  |  | 

Further molecules by rising pIC50 (SKVLB; read-out: IC50), results first:

pIC50 (SKVLB; read-out: IC50) | pIC50 (SKOV3; read-out: IC50) | pIC50 (LOX; read-out: IC50) | pIC50 (HT29; read-out: IC50) | pIC50 (T47D; read-out: IC50) | Compound | VLB/OV3 (SKVLB) | pIC50 (SKOV3) | pIC50 (SKVLB) | pIC50 (LOX) | pIC50 (HT29) | pIC50 (T47D)
4.41 | 4.99 | 5.36 | 5.55 | 4.80 | CC(=O)[C@@H]1CC2=C(C(=O)c3cc4ccccc4c(O)c3C2=O)[C@@H](O[C@H]2C[C@H](NC(=O)C(F)(F)F)[C@H](OS(C)(=O)=O)[C@H](C)O2)O1 [BCH-2093, (1S,1R,3S)-Methyl-(6-hydroxy-1-(2',3',4',6'-tetradeoxy-3'-trifluoroacetamido-4'-O-methanesulfonyl-L-lyxohexopyranose)-5,12-dioxo-3,4,5,12-tetrahydroanthraceno[2,3-c]pyran-3-yl)ketone] | 3.82 |  |  |  |  | 
4.55 | 4.90 | 5.03 | 4.97 | 4.87 | C[C@@H]1O[C@@H](O[C@H]2O[C@H](c3ccccc3)CC3=C2C(=O)c2cc4ccccc4c(O)c2C3=O)C[C@H](NC(=O)C(F)(F)F)[C@@H]1O [BCH-2010, (1S, 1R, 3S)-3-(6-hydroxy-1-(2',3',6'-trideoxy-3'-trifluoroacetamido-4'-hydroxy-L-lyxohexopyranose)-5,12-dioxo-3,4,5,12-tetrahydroanthraceno-[2,3-c]pyran-3-yl)benzene] | 2.24 |  |  |  |  | 
4.85 | 6.51 | 6.83 | 6.23 | 6.16 | CC(=NO)[C@H]1Cc2c(O)c3c(c(O)c2[C@H](O[C@H]2C[C@H](N)[C@H](O)[C@H](C)O2)O1)C(=O)c1ccccc1C3=O [BCH-2074, (1'S, 1S,3R)-3-(Oximoethyl)-5,12-dihydroxy-1(2,3,6-trideoxy-3-amino-L-lyxohexolpyranose)-6,11-dioxo-3,4,6,11-tetrahydro-1H-anthra[2,3-C]pyran hydrochloride] | 45.48 |  |  |  |  | 
5.33 | 5.62 | 5.68 | 5.52 | 5.44 | CCC1COC(OC2CC(NC(=O)C(F)(F)F)C(O)C(C)O2)C2=C1C(=O)c1c(cc3ccccc3c1O)C2=O [BCH-2080, (1'S,1S,4S)-5,12-Dioxo-4-ethyl-6-hydroxy-1-(2',3',6'-trideoxy-3'-trifluoroacetamido-L-lyxohexopyranose)-3,4,5,12-tetrahydroanthraceno-[2,3-c]-pyran] |  |  |  |  |  | 
6.17 | 7.03 | 7.22 | 6.89 | 6.46 | CC[C@@H]1Cc2c(O)c3c(c(O)c2[C@@H](O[C@H]2C[C@H](N)[C@H](O)[C@H](C)O2)O1)C(=O)c1ccccc1C3=O [BCH-2016, (1'S,1R, 3R)-3-ethyl-5,12-dihydroxy-1-(2',3',6'-trideoxy-3'-amino-L-lyxohexopyranose)-1,2,3,4-tetrahydro-(2-oxygen)-naphthacene-6,11-dione-hydrochloride] | 7.17 |  |  |  |  | 
6.23 | 7.03 | 6.98 | 6.27 | 6.30 | CC(=O)[C@@H]1Cc2c(O)c3c(c(O)c2[C@@H](O[C@@H]2O[C@@H](C)[C@@H](O)[C@@H](N)C2I)O1)C(=O)c1ccccc1C3=O (stereo partly drawn) [BCH-2066, (1'S,1R,3S)-Methyl-(5,12-dihydroxy-1-[2',3',6'-trideoxy-3'-amino-4'hydroxy-2'-iodo-L-lyxohexopyranose]-6,11-dioxo-3,4,6,11-tetrahydroanthraceno-[2,3C]-pyran-3-yl) ketone hydrochloride] | 6.32 |  |  |  |  | 
6.33 | 6.56 | 6.99 | 7.11 | 6.58 | CC(C)[C@H]1Cc2c(O)c3c(c(O)c2[C@H](O[C@H]2C[C@H](N)[C@H](O)[C@H](C)O2)O1)C(=O)c1ccccc1C3=O [BCH-2049, (1'S,1S,3R)-5,12-trihydroxy-3-isopropyl-1-(2',3',6'-trideoxy-3'-amino-L-lyxohexopyranose)-1,2,3,4-tetrahydro-(2-oxygen)-naphthacene-6,11-dione-hydrochloride] | 1.72 |  |  |  |  | 
6.38 | 6.48 | 6.98 | 6.71 | 6.70 | CCCCCC1Cc2c(O)c3c(c(O)c2C(O[C@H]2C[C@H](N)[C@H](O)[C@H](C)O2)O1)C(=O)c1ccccc1C3=O (stereo partly drawn) [BCH-2089, (1'S,1R,3R)-5,12-Dihydroxy-3-pentyl-1-(2',3',6'-trideoxy-3'-amino-L-lyxohexopyranose)-1,2,3,4-tetrahydro-(2-oxygen)-naphtacene-6,11-dione-hydrochloride] | 1.27 |  |  |  |  | 
